The target of one data set is T1, Cyclin H (CCNH) (Homo sapiens, UniProt P51946).
T1 construct: purchased Sino Biological Inc. Lot; ME12NO2769 (a lot number; catalogue number not given); host or cells: E. coli
T1 sequence (P51946 1-323): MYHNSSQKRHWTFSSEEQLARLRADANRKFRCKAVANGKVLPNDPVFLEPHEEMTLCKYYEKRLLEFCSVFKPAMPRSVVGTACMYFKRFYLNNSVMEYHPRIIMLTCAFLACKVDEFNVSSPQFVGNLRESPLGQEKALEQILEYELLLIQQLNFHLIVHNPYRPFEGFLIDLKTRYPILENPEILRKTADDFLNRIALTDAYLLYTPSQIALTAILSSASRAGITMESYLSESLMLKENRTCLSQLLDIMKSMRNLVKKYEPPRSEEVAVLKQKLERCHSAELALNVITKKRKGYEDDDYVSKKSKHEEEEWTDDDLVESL
Briefly: Surface plasmon resonance (SPR) on BIAcore. To be noted: binding to CCNH; for kon: association rate, read-out: Ka. Here is the method:
Recombinant Cyclin H (CCNH) protein with a C-HIS tag (Lot. ME12NO2769, 38.46 kDa) was obtained from Sino Biological Inc. and stored at −80 °C. In short, the cyclin H (Homo sapiens) gene was amplified by PCR and cloned into an expression vector which was transformed into E. coli followed by the selection and establishment of high expression transformants. The protein was purified using immobilized metal ion affinity chromatography and dissolved in PBS (pH 7.4). SPR measurement was performed with Biacore T200 instrument (GE), at 25 °C, with a flow rate of 30 μL/min. CM5 sensor chips, HBS-EP running buffer and the Amine Coupling Kit, including 1-ethyl-3(3-dimethylaminopropyl) carbodiimide hydrochloride (EDC), N-hydroxysuccinimide (NHS), 1.0 M ethanolamine-HCl (pH 8.5) were purchased from GE. The binding properties of candidalysin to CCNH were evaluated upon immobilization of CCNH onto CM5 chip surface in flow cell 2 (FC-2) using Biacore Amine Coupling Kit according to the manufacturer’s instructions. CCNH was diluted to 20 μg/ml in acetate buffer (pH 4.0) in advance and immobilized on the CM5 Chip following the EDC/NHS protocol. The reached immobilized target level was 1200 RU. The reference flow cell (FC-1) was blank-immobilized following the templated procedure. BIAcore measurements were performed starting from a 1:1 serial dilution of candidalysin following the templated multicycle analysis (association time 120 s, dissociation time 150 s, flow 30 μL/min). The SPR measurement for Ece1-II, Ece1-IV, Ece1-V and human cathelicidin (Solarbio, CLP0454) to CCNH were performed with Biacore 8 K instrument (GE) by PBST running buffer, and the other conditions were the same.

Another data set relates to A549 cells. Nature of the data set: Western blot of CCNH and γ-H2AX, A549 and CCNH-KD A549 cells. Type of data set: cell-based. As to conditions: A549, 10 μM, 4 h. Here is the method: (§1) Cells were lysed with cell lysis buffer (Beyotime, #P0013) on ice for 30 min. The supernatant of cell lysate was then collected in a table-top refrigerated centrifuge at 4 °C and 14,000 × g for 10 min. Protein concentration was determined by Pierce™ BCA Protein Assay Kit (Thermo Scientific™, #23227). Antibodies against the following proteins were used for Western blotting analysis: CCNH antibody (CST,Rabbit Source, Cat#2927, 1:1000 dilution), gama-H2AX antibody (CST, Rabbit Source, Cat#97185, 1:1000 dilution), GAPDH (D16H11) XP® Rabbit mAb (CST, Rabbit Source, Cat#5174 S, 1:1000 dilution), Anti-CDK2 (phospho T160) + CDK1 (phospho T161) antibody (Abcam, Rabbit Source, Cat#EPR17621, 1:1000 dilution), Anti-rabbit IgG, HRP-linked Antibody (CST, Goat Source, Cat#7074, 1:5000 dilution), […] Tag (D6W5B) Rabbit mAb (CST, Rabbit Source, Cat#14793, 1:1000 dilution), GFP (4B10) Mouse mAb (CST, Mouse Source, Cat #2955, 1:1000 dilution), Anti-mouse IgG,HRP-linked antibody (CST, Goat Source, Cat#7076, 1:5000 dilution). Membranes were treated with SuperSignal™ West Pico PLUS Chemiluminescent Substrate (Thermo Scientific™, #34577) prior to visualization in the Chemiluminescence Imaging Analysis System (BG-gdsAUTO720, Baygene). GAPDH was used as the loading control.

The test system of a further data set is FaDu cells. Nature of the data set: Western blot of CCNH and γ-H2AX, FaDu cells. Type of data set: cell-based. To be noted: comparison toxins / low-dose Triton X-100. Here is the method: as §1
In general terms: In western blotting, separated proteins are transferred to a membrane and probed.

The Kd is the free concentration of one partner at which half of the binding sites on the other are occupied at equilibrium, for simple one-to-one binding. A lower Kd goes with a tighter complex.

Ends that are not written are not given here.

Turning to `CC[C@H](C)[C@H](NC(=O)CNC(=O)[C@H](C)NC(=O)[C@@H](NC(=O)[C@@H](NC(=O)[C@H](CO)NC(=O)[C@H](CC(=O)O)NC(=O)[C@@H](NC(=O)[C@H](CC(=O)O)NC(=O)[C@@H](N)CCC(=O)O)[C@@H](C)CC)C(C)C)C(C)C)C(=O)N[C@H](C(=O)N[C@@H](C)C(=O)N[C@@H](CC(=O)O)C(=O)N[C@@H](CCSC)C(=O)N1CCC[C@H]1C(=O)N[C@@H](Cc1ccccc1)C(=O)N[C@H](C(=O)N[C@H](C(=O)N[C@@H](CCCNC(=N)N)C(=O)N[C@@H](C)C(=O)N[C@H](C(=O)N[C@@H](CC(=O)O)C(=O)N[C@H](C(=O)N[C@@H](C)C(=O)N[C@@H](CCSC)C(=O)N[C@H](C(=O)N[C@@H](CO)C(=O)N[C@H](C(=O)N[C@@H](C)C(=O)N[C@@H](CO)C(=O)N[C@H](C(=O)N[C@@H](CCCCN)C(=O)N[C@@H](CCCNC(=N)N)C(=O)O)[C@@H](C)O)C(C)C)[C@@H](C)O)[C@@H](C)O)C(C)C)C(C)C)C(C)C)[C@@H](C)CC` [Ece1-IV], the kon on Cyclin H (CCNH) is 49.8 M⁻¹ s⁻¹.
Still for that read-out and setting: to `CC[C@H](C)[C@H](NC(=O)[C@H](CO)NC(=O)[C@H](CCC(N)=O)NC(=O)[C@H](CCC(N)=O)NC(=O)[C@@H](NC(=O)CNC(=O)[C@@H](NC(=O)[C@H](C)NC(=O)[C@@H](NC(=O)[C@H](CCCNC(=N)N)NC(=O)[C@H](C)NC(=O)[C@@H](NC(=O)[C@@H](NC(=O)[C@H](CCC(=O)O)NC(=O)[C@@H]1CCCN1C(=O)[C@H](CC(C)C)NC(=O)[C@H](CCCNC(=N)N)NC(=O)[C@@H](NC(=O)[C@@H](NC(=O)[C@H](C)NC(=O)[C@H](CC(N)=O)NC(=O)[C@H](C)NC(=O)[C@@H](NC(=O)[C@H](CC(=O)O)NC(=O)[C@H](CC(=O)O)NC(=O)[C@H](CC(N)=O)NC(=O)[C@H](C)NC(=O)CNC(=O)[C@@H](N)CC(=O)O)C(C)C)C(C)C)C(C)C)[C@@H](C)CC)C(C)C)C(C)C)[C@@H](C)O)C(C)C)C(=O)N[C@@H](CCC(=O)O)C(=O)N[C@@H](CC(N)=O)C(=O)N[C@@H](C)C(=O)N[C@@H](CCCCN)C(=O)N[C@@H](CCCNC(=N)N)C(=O)O` [Ece1-V] belongs 228 M⁻¹ s⁻¹.
As for `CN(C)C/C=C/C(=O)Nc1ccc(C(=O)Nc2cccc(Nc3ncc(Cl)c(-c4c[nH]c5ccccc45)n3)c2)cc1` [THZ1], in the data set with A549 cells, the “CCNH and γ-H2AX expression” value is “prominently elevated CCNH and γ-H2AX expression”.
Take FKRIVQRIKDFLRNLVPRTES [Amp]: the kon at Cyclin H (CCNH) came out at 3040 M⁻¹ s⁻¹. Also, at Cyclin H (CCNH) (column pK, row KD (M)), binding was put at a Kd of 6.26e-05 M.
Consider Triton X-100, for which, in the data set with FaDu cells, the “DNA damage (CCNH and γ-H2AX expression)” value is “failed to induce severe DNA damage”.
Take mellitin: pore forming toxin: in the data set on FaDu cells, the “DNA damage (CCNH and γ-H2AX expression)” value is “failed to induce severe DNA damage”.

The values above are taken from PMC10899660, “Global fungal-host interactome mapping identifies host targets of candidalysin” (Nature Communications, 2024).
